The values below come from patent US20210260051A1, “COMBINATION OF EZH2 INHIBITOR AND CHECKPOINT THERAPY FOR THE TREATMENT OF CANCER” (Board of Regents, The University of Texas System, priority 2018, published 2021).

Series [1] relates to EZH2. Briefly: EZH2 expression in peripheral CD4 T cells of patients with metastatic melanoma (RNA sequencing). The series is classed as in vivo, human. As to conditions: after three doses vs baseline, FIG. 2B. The text has this:
(§1) FIGS. 2A-2C: Ipilimumab increases EZH2 expression in T cells. (FIG. 2A) Unsupervised hierarchical cluster analysis of RNA sequencing data from the peripheral CD4 T cells of patients with metastatic melanoma before and after 3 doses of ipilimumab therapy (week 7). (FIG. 2B) Matched pair analysis of EZH2 expression before and after ipilimumab therapy. (FIG. 2C) Ezh2 expression in peripheral CD4 T cells from patients with metastatic prostate cancer at baseline and after 3 doses of ipilimumab therapy. (2 tailed student t test was used to determine significance; **p<0.01).
T cell activation by CD28 signaling induces EZH2 expression (DuPage et al., 2015). It was postulated that exaggerated CD28 signaling due to anti-CTLA-4 therapy would increase EZH2 expression in T cells. To test this hypothesis, peripheral CD4 T cells were isolated from patients with metastatic melanoma who received ipilimumab as the first line of therapy for metastatic disease, at baseline and after three doses of ipilimumab therapy.
Patient samples. […]
RNA sequencing. […] For bioinformatics analysis, the raw reads were aligned to the mm10 reference genome using TopHat2. HTSeq count was used to count the raw reads that were uniquely mapped to each gene. DESeq2 was then applied to normalize the raw read counts and identify the differentially expressed genes between the groups. […]

For series [2] the following is noted: patients, in combination with other immune checkpoint therapy such as Nivolumab; cited from earlier work.
The subject of series [3] is EZH2. In words: flow cytometry of EZH2 expression in sorted peripheral T cell subsets before and after ipilimumab. It counts as in vivo, human. As to conditions: peripheral blood, post-ipilimumab vs baseline; FIG. 7. The text has this:
FIG. 7: Flow cytometry analysis of EZH2 expression on CD4^+CD45RO^−CD45RA+CCR7^− (CD4 T effector, Teff), CD4^+CD25^+FoxP3^+ (T regulatory, T-reg) and CD8 T cells derived from peripheral blood mononuclear cells of patients with metastatic melanoma at baseline and after three doses of ipilimumab. Matched pair analysis of Ezh2 expression before and after ipilimumab therapy. Student t-test was used for significance (**p<0.01, *p<0.05).
Next, EZH2 expression was confirmed in peripheral CD4 T cells isolated from patients with metastatic prostate cancer at baseline and after three doses of ipilimumab (Subudhi et al., 2016). […] Next, EZH2 expression was evaluated on human CD4 effector T cells (CD4^+CD45RO^−CD45RA^+CCR7^−), regulatory T cells (CD4^+CD25^+FoxP3^+) and CD8 T cells sorted from peripheral blood of at baseline and post-ipilimumab therapy.
Tissue processing and flow cytometry. […] Staining with intracellular anti-Foxp3 (eBioscience, FJK-16 s), […] (eBioscience, PC61.5), antiKi-67 (eBioscience, SolA15), antiIFN-γ (BioLegend, XMG1.2), anti-TNF-α (BioLegend, MP6-XT22), and anti-EZH2 (Cell Signaling Technology, D2C9) were analyzed by flow cytometry according to the manufacturers’ instructions. Flow cytometry data were acquired on BD LSR II (BD Biosciences) and analyzed using FlowJo software (Tree Star, Ashland, Oreg.).
On the technique in general: A flow cytometer gives signals particle by particle.

The subject of series [4] is EZH2. Briefly: EZH2 expression in peripheral CD4 T cells of patients with metastatic prostate cancer. The series is classed as in vivo, human. The following applies: after three doses vs baseline, FIG. 2C.
From the text: as §1
Next, EZH2 expression was confirmed in peripheral CD4 T cells isolated from patients with metastatic prostate cancer at baseline and after three doses of ipilimumab (Subudhi et al., 2016). Like in patients with metastatic melanoma, increased EZH2 expression was found in CD4 T cells following ipilimumab therapy (FIG. 2C) that inversely correlated with prostate-specific antigen progression (FIG. 6). Next, EZH2 expression was evaluated on human CD4 effector T cells (CD4^+CD45RO^−CD45RA^+CCR7^−), regulatory T cells (CD4^+CD25^+FoxP3^+) and CD8 T cells sorted from peripheral blood of at baseline and post-ipilimumab therapy.
Patient samples. Metastatic melanoma samples were obtained from patients who received ipilimumab as the standard of care. […]

With “ipilimumab: a fully human monoclonal immunoglobulin G1 antibody that blocks cytotoxic T lymphocyte associated protein 4”, the “EZH2 expression in peripheral CD4 T cells” value in the series with EZH2 [1] is reported as “increase”. Moreover, the side effect profile entry in series [2] is recorded as “manageable side effect profile”. Also, the “EZH2 expression in CD4 effector T cells, regulatory T cells and CD8 T cells” value in the series with EZH2 [3] was “increased in all three T cell subtypes”. In the series on EZH2 [4], the “EZH2 expression in CD4 T cells” value is recorded as “increased”.
